{"source": "paper PMC4026528", "about": "(PLoS ONE, 2014)", "key": {"[1]": {"test_system": "Wnt transcriptional activity in HT-1080 cells", "test": "TCF Wnt reporter assay in HT-1080", "format": "cell-based, human", "conditions": "HT-1080, data not shown", "excerpt": "(§1) The generation of TCF-Luciferase and TA-Renilla reporter plasmids as well as IC50 determination and calculation was reported previously. Human AXIN1 and WNT3A cDNAs were purchased from Origene as “transfection ready” plasmids. Dominant negative TCF4 cDNA was purchased from Upstate. Luciferase reporter of the nucleolin promoter (pNucL14) and FLAG-c-Myc expressing vector were from B. Amati. Luciferase reporter of the Hes5 promoter and Notch1-IC expressing vector were from I. Screpanti. Lentiviral vectors for inducible dominant negative TCF4 (rLV-EF1-tTS, rLV-EF1-rtTA and rLV-TRE-CMV-HA-TCF4DN) were purchased from Vectalys.\n(§2) Transfections were carried out using Lipofectamine 2000 (Invitrogen) according to the manufacturer’s instructions. Lentiviral expression of TCF-Luc, TA-Renilla, and the inducible dominant negative TCF4, were carried out following Vectalys instructions. For reporter assays, luciferase activities were performed as described previously."}, "[2]": {"test_system": "Wnt target gene mRNA in U2OS cells", "test": "Quantitative RT-PCR of Wnt target genes in U2OS", "format": "cell-based, human", "procedure": "RNA extraction and quantitative RT-PCR (qPCR) expression analysis was performed as described previously. Gene expression analysis was performed using the human housekeeping gene RPL13A. Primers for the hAXIN2, hCDC25A, hc-MYC, hFZD4, hDVL2, hCSNK1G and hVEGF-A were the following: Fw: 5′-CAAGGGCCAGGTCACCAA-3′ Rv: 5′-CCCCCAACCCATCTTCGT-3′; Fw: 5′-[…]-3′ Rv: 5′-[…]-3′; Fw: 5′-GGCTCCTGGCAAAAGGTCA-3′ Rv: 5′-[…]-3′; Fw: 5′-[…]-3′ Rv: 5′-[…]-3′; Fw: 5′-[…]-3′ Rv: 5′-GTCTCCCCGCTCATTGCTC-3′; Fw: 5′-[…]-3′ Rv: 5′-[…]-3′; Fw: 5′-[…]-3′ Rv: 5′-[…]-3′."}, "[3]": {"test_system": "Axin1 and β-catenin in 143B osteosarcoma cells", "test": "Western blotting in 143B", "format": "cell-based, human"}, "HT-1080 cells": {"test_system": "HT-1080 cells", "test": "Scratch assay (motility), HT-1080", "format": "cell-based, human", "conditions": "HT-1080, 20 hours", "procedure": "(§3) Soft agar assay and analysis was carried out as previously described. For scratch assay, confluent monolayer of U2OS and HT-1080 cells were subjected to scratch using a sterile pipette tip. Wounded monolayers were washed to remove debris and incubated with SEN461 at different concentrations for 20 hours. After the incubation period, images were taken under an Axiovert 200M (Zeiss) microscope equipped with a CCD camera, and the gap width was measured using MetaMorph 6.3 software (Universal Imaging Corp.) to calculate the area covered by cells (pixels unit). The tube formation assay was performed using growth factor-reduced Matrigel from BD (BD Biosciences; San Jose, CA, USA). Matrigel was thawed overnight at 4°C and was diluted (1∶1) with phenol red-free DMEM without serum. 100 µl of the diluted matrigel was used to coat the wells of a 96 well plate and was allowed to polymerize for 2 hours at 37°C. After equilibrating the gel with the complete growth medium, 15×10^3 cells were seeded in each well and incubated for 20 hours. The tube formation was monitored under a phase contrast microscope (Axiovert 200, Zeiss) and imaged using MetaMorph system (Universal Imaging Corp)."}, "HUVEC cells": {"test_system": "HUVEC cells", "test": "Tube formation assay, HUVEC", "format": "cell-based", "conditions": "data not shown", "procedure": "as §3"}, "[4]": {"test_system": "Myc transcriptional activation in HEK293 cells", "test": "Nucleolin promoter (pNucL14) luciferase reporter, HEK293", "format": "cell-based", "conditions": "HEK293, pNucL14 ± FLAG-c-Myc", "excerpt": "as §1, §2"}, "[5]": {"test": "Plasma and tumor exposure in HT-1080 xenograft mice", "format": "in vivo, female Crl:CD-1 nude mice", "conditions": "30 mg/kg BID PO", "procedure": "Female athymic nude mice (6 weeks old, Crl:CD-1 nude mice) were obtained from Charles River Italia (Calco, Italy). HT-1080 cells (6×10^∧6 cells) were resuspended in 200 µl of PBS 1X and injected subcutaneously in the right flank of the mice. Body weight and tumor measurements (using a digital caliper) were performed twice a week. Randomization was performed on day 12 after cell injection by comparing tumor mass and treatments started on day 13 when tumors reached a median size of 246 mm^3 (range = 230–268 mm^3). SEN461 was formulated in 0.5% w/v Methocel in MilliQ water and administered PO by oral gavage twice a day at 30 mg/kg for seven consecutive days in a total of 15 animals (n = 5 for each time point). Control animals (n = 5) were administered with the vehicle for the same time period. On treatment day 19, the mice were euthanized under inhalant anesthesia with isoflurane and tumor and blood samples were collected at three different time points (1–4–8 h, n = 5 animals for each time point) after last treatment and subjected to gene expression analysis and compound quantification. All mice were maintained in a conventional-specific-pathogen-free facility according to the NIH guidelines using an approved Animal Care and Use Committee protocol. During all the experimental time period, mice were housed (5 animals/cage) in individually ventilated solid floor plastic cages (Sealsafe Plus GR500, Tecniplast-Gazzada (VA) – Italy) using as bedding the Sawdust SCOBIS UNO by MUCEDOLA S.r.l (via Galileo Galilei 4, 20019 Settimo Milanese, Milano, Italy). Cages were maintained at a temperature of 20–24°C and humidity of 40–70% (Siemens Desigo Apparatus ver. 4.1) with 70 air changes/hour in the cage (10–15 air changes/hour in the room). Animals were subjected to a 12-hour light/12-hour dark cycle and have free access to a standard pelleted commercial laboratory diet (Certified Rodent irradiated 4RF21– Mucedola, Italy) and to municipal tap water, purified by reverse osmosis and autoclaved. The study was conducted in compliance with Decreto Legislativo January 27, 1992, N. 116, Gazzetta Ufficiale N. 40 February 18, 1992, (Directive N. […]) concerning protection of animals used for scientific purposes. The project was authorized by the Italian Institute of Health (48/2009/B). The experimental protocol was rewieved and approved by the Internal Ethical Committee."}, "[6]": {"test": "Body weight and intestinal histology of treated mice", "format": "in vivo, female Crl:CD-1 nude mice", "conditions": "30 mg/kg twice a day for seven days", "procedure": "Female athymic nude mice (6 weeks old, Crl:CD-1 nude mice) were obtained from Charles River Italia (Calco, Italy). HT-1080 cells (6×10^∧6 cells) were resuspended in 200 µl of PBS 1X and injected subcutaneously in the right flank of the mice. Body weight and tumor measurements (using a digital caliper) were performed twice a week. Randomization was performed on day 12 after cell injection by comparing tumor mass and treatments started on day 13 when tumors reached a median size of 246 mm^3 (range = 230–268 mm^3). SEN461 was formulated in 0.5% w/v Methocel in MilliQ water and administered PO by oral gavage twice a day at 30 mg/kg for seven consecutive days in a total of 15 animals (n = 5 for each time point). Control animals (n = 5) were administered with the vehicle for the same time period. On treatment day 19, the mice were euthanized under inhalant anesthesia with isoflurane and tumor and blood samples were collected at three different time points (1–4–8 h, n = 5 animals for each time point) after last treatment and subjected to gene expression analysis and compound quantification. All mice were maintained in a conventional-specific-pathogen-free facility according to the NIH guidelines using an approved Animal Care and Use Committee protocol. […]"}, "[7]": {"test_system": "Wnt transcriptional activity in DLD1 colorectal cancer cells", "test": "TCF-Luciferase/TA-Renilla Wnt reporter assay in DLD1", "format": "cell-based", "conditions": "DLD1, transiently transfected", "excerpt": "as §1, §2"}}, "note": "“And” between values parts separate entries of the source, which are not always exact repeats. Identical values can stand only once."}
{"smiles": "COCC(=O)N1CCN(C(=O)C2CCC(Cn3c(=O)c4cc(OC)ccc4n(C)c3=O)CC2)CC1", "note": "(stereo not shown) [SEN461]", "values": [{"measurement": "Wnt transcriptional modulation (TCF reporter)", "setting": "[1]", "result": "did not find any Wnt transcriptional modulation"}, {"measurement": "CSNK1G mRNA", "setting": "[2]; 10 µmol/L", "result": "down-modulation"}, {"measurement": "DVL2 mRNA", "setting": "[2]; 10 µmol/L", "result": "down-modulation"}, {"measurement": "FZD4 mRNA", "setting": "[2]; 10 µmol/L", "result": "down-modulation"}, {"measurement": "AXIN2 mRNA", "setting": "[2]; 10 µmol/L, 2 or 24 h", "result": "comparable down-regulation"}, {"measurement": "CDC25A mRNA", "setting": "[2]; 10 µmol/L, 2 or 24 h", "result": "comparable down-regulation"}, {"measurement": "AXIN2 mRNA induced by Wnt3a CM", "setting": "[2]; Wnt3a CM stimulation", "result": "inhibited"}, {"measurement": "c-MYC mRNA", "setting": "[2]; overnight treatment", "result": "unaffected"}, {"measurement": "Axin1 protein level", "setting": "[3]", "result": "Axin1 stabilization"}, {"measurement": "cytoplasmic β-catenin total level", "setting": "[3]", "result": "down-regulation of total level of cytoplasmic β-catenin"}, {"measurement": "cellular motility (two-dimensional scratch assay)", "setting": "HT-1080 cells", "result": "neither U2OS nor HT-1080 cells showed inhibition of motility"}, {"measurement": "tubule-formation activity", "setting": "HUVEC cells", "result": "did not show any effect"}, {"measurement": "Myc mediated activation / basal activity of nucleolin reporter", "setting": "[4]", "result": "did not affect"}, {"measurement": "Ctumor/plasma", "setting": "[5]; day 7, 1 h", "result": 0.23}, {"measurement": "Cplasma", "setting": "[5]; day 7, 1 h after last dose", "result": "6.6 µmol/L and 6.62 ± 2.08 µmol/L"}, {"measurement": "Ctumor", "setting": "[5]; day 7, 1 h after last dose", "result": "1.5 µmol/L and 1.54 ± 0.35 µmol/L"}, {"measurement": "Ctumor/plasma", "setting": "[5]; day 7, 4 h", "result": 0.23}, {"measurement": "Cplasma", "setting": "[5]; day 7, 4 h after last dose", "result": "2.57 ± 0.08", "unit": "µmol/L"}, {"measurement": "Ctumor", "setting": "[5]; day 7, 4 h after last dose", "result": "0.58 ± 0.08", "unit": "µmol/L"}, {"measurement": "Ctumor/plasma", "setting": "[5]; day 7, 8 h", "result": 0.17}, {"measurement": "Cplasma", "setting": "[5]; day 7, 8 h after last dose", "result": "0.57 ± 0.19", "unit": "µmol/L"}, {"measurement": "Ctumor", "setting": "[5]; day 7, 8 h after last dose", "result": "0.10 ± 0.02", "unit": "µmol/L"}, {"measurement": "body weight", "setting": "[6]", "result": "maintained their body weight with no significant changes"}, {"measurement": "histology of gastrointestinal tract", "setting": "[6]", "result": "absence of gross histological changes"}, {"measurement": "Wnt transcriptional activity (TCF-Luciferase/TA-Renilla)", "setting": "[7]", "result": "Concentration dependent inhibition of Wnt transcriptional activity"}]}
